Measurements from US20220265629A1, “TREATMENT OF SYSTOLIC DYSFUNCTION AND HEART FAILURE WITH REDUCED EJECTION FRACTION WITH THE COMPOUND (R)-4-(1-((3-(DIFLUOROMETHYL)-1-METHYL-1H-PYRAZOL-4-YL)SULFONYL)-1-FLUOROETHYL)-N-(ISOXAZOL-3-YL)PIPERIDINE-1-CARBOXAMIDE” (MyoKardia, Inc., priority 2019, published 2022).
Marks after values point to notes of the source that are not given here.

How the values were obtained:
cardiac actin and myosin = cardiac actin and myosin (Homo sapiens, UniProt P12883); test: Crossbridge formation (phosphate release) and detachment (ADP release) between cardiac actin and myosin; format: biochemical
Text: or a pharmaceutically acceptable salt thereof. […] Crossbridge formation and detachment are critical steps in each cycle of cardiac contraction. Compound I reversibly binds to myosin, increasing the number of myosin/actin crossbridges available to participate in the strongly bound state of the chemomechanical cycle and thereby increasing contraction.

[1] = test system: patients with stable HFrEF; test: HFrEF study Part 2 (MAD Cohorts A-D): TTE pharmacodynamics by plasma concentration group; format: in vivo, human; conditions: for A-wave duration, mean change from baseline (placebo-corrected) / A-wave peak, mean change from baseline (placebo-corrected) / DBP (supine), mean change from baseline (placebo-corrected) / E-wave peak, mean change from baseline (placebo-corrected) / E/A ratio, mean change from baseline (placebo-corrected) / E/e′ (lateral), mean change from baseline (placebo-corrected) / Heart rate (supine), mean change from baseline (placebo-corrected) / IVRT, mean change from baseline (placebo-corrected) / LVEDD, mean change from baseline (placebo-corrected) / LVEDVi, mean change from baseline (placebo-corrected) / LVEF, mean change from baseline (placebo-corrected) / LVESD, mean change from baseline (placebo-corrected) / LVESVi, mean change from baseline (placebo-corrected) / LVFS, mean change from baseline (placebo-corrected) / LVGCS, mean change from baseline (placebo-corrected) / LVGLS, mean change from baseline (placebo-corrected) / LVSV, mean change from baseline (placebo-corrected) / SBP (supine), mean change from baseline (placebo-corrected) / SET, mean change from baseline (placebo-corrected) / Tei index, mean change from baseline (placebo-corrected) / e′ (lateral), mean change from baseline (placebo-corrected) / s′ (lateral), mean change from baseline (placebo-corrected): LS mean difference vs placebo
Procedure: PD assessment was done by transthoracic echocardiography as described in Example 1 above. TTE evaluations of LVSV (derived from LVOT-VTI), LVEF, LVFS, SET, and other parameters were PD assessments at predetermined time points. The patients were on bed rest for 10 minutes before the TTEs were obtained. In Part 2 (MAD), TTEs were usually obtained before the morning close and/or at 7 hours postclose (i.e., close to the anticipated peak effect based on the PK profile from the healthy volunteer studies).
The pharmacodynamic effects of Compound I on echocardiographic markers of cardiac structure and function were analyzed by Compound I plasma concentration groups: <2000 ng/mL (lower concentration group), 2000-3500 ng/mL (medium concentration group) and ≥3500 ng/mL (higher concentration group) (Table 16) and with PK-PD scatterplots (FIGS. 9A-9C). The medium concentration group corresponds to steady-state plasma concentrations achieved with 50 mg BID (Table 17). A total of 526 echocardiograms were performed from which the PK-PD analysis was derived.

[2] = MAD cohorts, plasma concentration group 2000-<3500 ng/mL (n = 26)
[3] = MAD cohorts, plasma concentration group <2000 ng/mL (n = 30)
[4] = MAD cohorts, plasma concentration group ≥3500 ng/mL (n = 13)
[5] = higher concentration group (≥3500 ng/mL)
[6] = medium concentration group (2000-3500 ng/mL)

Chain of cardiac actin and myosin (P12883 whole entry): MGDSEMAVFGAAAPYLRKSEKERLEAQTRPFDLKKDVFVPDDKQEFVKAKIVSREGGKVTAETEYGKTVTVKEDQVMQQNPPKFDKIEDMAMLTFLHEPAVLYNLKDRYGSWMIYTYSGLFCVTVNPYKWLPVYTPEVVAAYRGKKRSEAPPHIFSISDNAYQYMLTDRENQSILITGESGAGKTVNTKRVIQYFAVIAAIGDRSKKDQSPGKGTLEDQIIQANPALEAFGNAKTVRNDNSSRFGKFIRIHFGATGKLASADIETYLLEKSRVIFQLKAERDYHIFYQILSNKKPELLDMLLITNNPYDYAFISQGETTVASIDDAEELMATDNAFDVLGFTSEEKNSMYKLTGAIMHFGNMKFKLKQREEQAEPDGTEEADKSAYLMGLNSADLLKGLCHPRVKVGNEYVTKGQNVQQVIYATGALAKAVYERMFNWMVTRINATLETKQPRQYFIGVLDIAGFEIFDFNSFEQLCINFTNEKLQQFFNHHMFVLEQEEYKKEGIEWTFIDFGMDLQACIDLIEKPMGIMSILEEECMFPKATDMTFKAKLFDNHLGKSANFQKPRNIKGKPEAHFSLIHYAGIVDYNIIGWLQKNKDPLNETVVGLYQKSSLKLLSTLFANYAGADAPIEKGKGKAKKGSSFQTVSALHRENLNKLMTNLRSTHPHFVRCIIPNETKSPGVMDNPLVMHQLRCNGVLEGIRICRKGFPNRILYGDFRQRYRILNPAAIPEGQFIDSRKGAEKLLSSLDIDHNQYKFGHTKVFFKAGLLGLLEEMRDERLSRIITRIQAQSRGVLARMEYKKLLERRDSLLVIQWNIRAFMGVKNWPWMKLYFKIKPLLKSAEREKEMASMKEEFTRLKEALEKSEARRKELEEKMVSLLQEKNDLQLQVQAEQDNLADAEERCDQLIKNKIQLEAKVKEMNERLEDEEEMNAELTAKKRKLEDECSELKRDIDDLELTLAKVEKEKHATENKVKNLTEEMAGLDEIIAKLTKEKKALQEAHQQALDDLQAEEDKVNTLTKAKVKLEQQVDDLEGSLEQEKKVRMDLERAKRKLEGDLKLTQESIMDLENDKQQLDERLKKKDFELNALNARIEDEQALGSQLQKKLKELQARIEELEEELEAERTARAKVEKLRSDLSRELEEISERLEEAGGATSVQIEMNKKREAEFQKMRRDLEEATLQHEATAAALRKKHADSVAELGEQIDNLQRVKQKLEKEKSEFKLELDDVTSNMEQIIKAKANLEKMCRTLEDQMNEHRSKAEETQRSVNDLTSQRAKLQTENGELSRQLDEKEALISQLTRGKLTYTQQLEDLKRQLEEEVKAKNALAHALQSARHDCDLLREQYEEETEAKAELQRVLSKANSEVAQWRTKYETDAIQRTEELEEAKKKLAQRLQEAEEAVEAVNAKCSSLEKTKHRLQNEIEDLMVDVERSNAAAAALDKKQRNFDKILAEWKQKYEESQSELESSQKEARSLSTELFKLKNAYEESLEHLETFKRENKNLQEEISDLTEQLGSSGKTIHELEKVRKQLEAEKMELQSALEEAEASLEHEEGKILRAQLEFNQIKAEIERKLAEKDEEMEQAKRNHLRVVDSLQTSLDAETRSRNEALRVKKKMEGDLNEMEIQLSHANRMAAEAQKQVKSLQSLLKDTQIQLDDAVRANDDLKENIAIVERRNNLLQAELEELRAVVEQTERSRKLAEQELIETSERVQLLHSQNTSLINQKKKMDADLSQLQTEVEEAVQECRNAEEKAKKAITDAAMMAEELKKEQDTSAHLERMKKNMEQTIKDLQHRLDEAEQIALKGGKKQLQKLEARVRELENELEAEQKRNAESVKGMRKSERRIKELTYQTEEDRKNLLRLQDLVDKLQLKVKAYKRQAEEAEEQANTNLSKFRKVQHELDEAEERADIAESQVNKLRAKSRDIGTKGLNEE
Chain of cardiac actin and myosin (P08590 whole entry partner): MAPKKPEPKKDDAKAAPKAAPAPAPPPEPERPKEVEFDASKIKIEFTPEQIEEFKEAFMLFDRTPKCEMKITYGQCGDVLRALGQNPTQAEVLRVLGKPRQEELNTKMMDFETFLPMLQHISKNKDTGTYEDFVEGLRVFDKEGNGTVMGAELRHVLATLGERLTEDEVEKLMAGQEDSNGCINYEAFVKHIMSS

Cn1cc(S(=O)(=O)[C@@](C)(F)C2CCN(C(=O)Nc3ccon3)CC2)c(C(F)F)n1 [Compound I, (R)-4-(1-((3-(difluoromethyl)-1-methyl-1H-pyrazol-4-yl)sulfonyl)-1-fluoroethyl)-N-(isoxazol-3-yl)piperidine-1-carboxamide]
crossbridge detachment (measured as ADP release) (cardiac actin and myosin): does not inhibit crossbridge detachment | crossbridge formation (measured as phosphate release) (cardiac actin and myosin; between cardiac actin and myosin): increases crossbridge formation | LVEF ([1]; MAD cohorts): non-significant increase | A-wave duration, mean change from baseline (placebo-corrected) [1, 2]: 5.9 ms | A-wave peak, mean change from baseline (placebo-corrected) [1, 2]: 6.1** cm/s | DBP (supine), mean change from baseline (placebo-corrected) [1, 2]: −0.2 mmHg | E-wave peak, mean change from baseline (placebo-corrected) [1, 2]: -2.1 cm/s | E/A ratio, mean change from baseline (placebo-corrected) [1, 2]: −0.1** | E/e′ (lateral), mean change from baseline (placebo-corrected) [1, 2]: −0.7 | Heart rate (supine), mean change from baseline (placebo-corrected) [1, 2]: −2.0 bpm | IVRT, mean change from baseline (placebo-corrected) [1, 2]: 10.5 ms | LVEDD, mean change from baseline (placebo-corrected) [1, 2]: −0.9** mm | LVEDVi, mean change from baseline (placebo-corrected) [1, 2]: −1.1 mL/m^2 | LVEF, mean change from baseline (placebo-corrected) [1, 2]: 1.1% | LVESD, mean change from baseline (placebo-corrected) [1, 2]: −1.3** mm | LVESVi, mean change from baseline (placebo-corrected) [1, 2]: −1.3 mL/m^2 | LVFS, mean change from baseline (placebo-corrected) [1, 2]: 0.8% | LVGCS, mean change from baseline (placebo-corrected) [1, 2]: −2.1** % | LVGLS, mean change from baseline (placebo-corrected) [1, 2]: −0.9* % | LVSV, mean change from baseline (placebo-corrected) [1, 2]: 7.8** mL | SBP (supine), mean change from baseline (placebo-corrected) [1, 2]: −0.8 mmHg | SET, mean change from baseline (placebo-corrected) [1, 2]: 36** ms | Tei index, mean change from baseline (placebo-corrected) [1, 2]: −0.08** | e′ (lateral), mean change from baseline (placebo-corrected) [1, 2]: 0.1 | s′ (lateral), mean change from baseline (placebo-corrected) [1, 2]: 0.6** | A-wave duration, mean change from baseline (placebo-corrected) [1, 3]: 6.0 ms | A-wave peak, mean change from baseline (placebo-corrected) [1, 3]: 4.1* cm/s | DBP (supine), mean change from baseline (placebo-corrected) [1, 3]: −0.9 mmHg | E-wave peak, mean change from baseline (placebo-corrected) [1, 3]: -3.8 cm/s | E/A ratio, mean change from baseline (placebo-corrected) [1, 3]: −0.1** | E/e′ (lateral), mean change from baseline (placebo-corrected) [1, 3]: −0.8 | Heart rate (supine), mean change from baseline (placebo-corrected) [1, 3]: 0.0 bpm | IVRT, mean change from baseline (placebo-corrected) [1, 3]: 2.7 ms | LVEDD, mean change from baseline (placebo-corrected) [1, 3]: −0.5 mm | LVEDVi, mean change from baseline (placebo-corrected) [1, 3]: −1.1 mL/m^2 | LVEF, mean change from baseline (placebo-corrected) [1, 3]: −0.3% | LVESD, mean change from baseline (placebo-corrected) [1, 3]: −0.8 mm | LVESVi, mean change from baseline (placebo-corrected) [1, 3]: −0.9 mL/m^2 | LVFS, mean change from baseline (placebo-corrected) [1, 3]: 0.5% | LVGCS, mean change from baseline (placebo-corrected) [1, 3]: −0.4% | LVGLS, mean change from baseline (placebo-corrected) [1, 3]: −0.3% | LVSV, mean change from baseline (placebo-corrected) [1, 3]: 3.1 mL | SBP (supine), mean change from baseline (placebo-corrected) [1, 3]: −1.5 mmHg | SET, mean change from baseline (placebo-corrected) [1, 3]: 15** ms | Tei index, mean change from baseline (placebo-corrected) [1, 3]: −0.05 | e′ (lateral), mean change from baseline (placebo-corrected) [1, 3]: −0.2 | s′ (lateral), mean change from baseline (placebo-corrected) [1, 3]: 0.2 | A-wave duration, mean change from baseline (placebo-corrected) [1, 4]: 11.9** msec | A-wave peak, mean change from baseline (placebo-corrected) [1, 4]: 4.3 cm/s | DBP (supine), mean change from baseline (placebo-corrected) [1, 4]: −1.4 mmHg | E-wave peak, mean change from baseline (placebo-corrected) [1, 4]: −10** cm/s | E/A ratio, mean change from baseline (placebo-corrected) [1, 4]: −0.2** | E/e′ (lateral), mean change from baseline (placebo-corrected) [1, 4]: 0.3 | Heart rate (supine), mean change from baseline (placebo-corrected) [1, 4]: −1.1 bpm | IVRT, mean change from baseline (placebo-corrected) [1, 4]: 27.8** msec | LVEDD, mean change from baseline (placebo-corrected) [1, 4]: −1.8** mm | LVEDVi, mean change from baseline (placebo-corrected) [1, 4]: −5.2* mL/m^2 | LVEF, mean change from baseline (placebo-corrected) [1, 4]: 2.3% | LVESD, mean change from baseline (placebo-corrected) [1, 4]: −1.8** mm | LVESVi, mean change from baseline (placebo-corrected) [1, 4]: −4.6** mL/m^2 | LVFS, mean change from baseline (placebo-corrected) [1, 4]: 0.5% | LVGCS, mean change from baseline (placebo-corrected) [1, 4]: −3.3** % | LVGLS, mean change from baseline (placebo-corrected) [1, 4]: −1.0* % | LVSV, mean change from baseline (placebo-corrected) [1, 4]: 5.7* mL | SBP (supine), mean change from baseline (placebo-corrected) [1, 4]: −5.2* mmHg | SET, mean change from baseline (placebo-corrected) [1, 4]: 48** ms | Tei index, mean change from baseline (placebo-corrected) [1, 4]: −0.02 | e′ (lateral), mean change from baseline (placebo-corrected) [1, 4]: −1.0** | s′ (lateral), mean change from baseline (placebo-corrected) [1, 4]: 0.3 | SET increase ([1]; SAD and MAD cohorts): < 50 ms | increase in SV (forward flow) ([1]; SAD and MAD cohorts, exposure-related): 8 to 9 mL | Myocardial performance (Tei index) improved ([1]; SAD and MAD cohorts, concentrations ≥2000 ng/mL): approximately 10% | LV longitudinal as well as circumferential strain, mean placebo-corrected decrease [1, 5]: −3.3% | LVESD, mean placebo-corrected decrease [1, 5]: −1.8 mm | SET, mean placebo-corrected increase [1, 5]: 48 ms | peak E wave, decrease [1, 5]: -10 cm/s | stroke volume, mean placebo-corrected increase [1, 5]: 5.7 mL | LV longitudinal as well as circumferential strain, mean placebo-corrected decrease [1, 6]: −2.1% | LVESD, mean placebo-corrected decrease [1, 6]: −1.3 mm | SET, mean placebo-corrected increase [1, 6]: 36 ms | stroke volume, mean placebo-corrected increase [1, 6]: 7.8 mL | filling pressures (E/e′) ([1]; medium or higher concentration group): No change
